From paper PMC7395062, “Multiparametric assessment of mitochondrial respiratory inhibition in HepG2 and RPTEC/TERT1 cells using a panel of mitochondrial targeting agrochemicals” (Archives of Toxicology, 2020)
Read-outs that look alike come from different tables or passages of the source.

How the values were obtained:
HepG2 3D spheroids = test: Cell death assay (PI staining) in 3D cultured HepG2 spheroids; format: cell-based, human; settings: for Effect of repeated exposure (5 × 24 h vs 1 × 24 h) on toxic sensitivity: 3D HepG2 spheroids; for EC50: Homo sapiens, HepG2, 24 h
Procedure: (§1) The HepG2 cell line, a human hepatocellular carcinoma, was obtained from ATCC (American Type Culture Collection, Wesel, Germany). […] Cells were maintained at 37 °C in a 5% CO2 humidified atmosphere, fed every 2 to 3 days and passaged at approximately 80% confluence. […] For galactose experiments, the medium was refreshed 24 h before exposure with galactose-containing medium. […] Culture medium was refreshed every 3–4 days and the culture was maintained for 21 days prior to dosing.
At day 21, the culture medium was replaced by fresh medium containing the compounds in the desired concentration. […] For the repeat exposure scenario, Hoechst was added to the 4th exposure and PI to the 5th exposure. […] The confocal imaging was performed using a Nikon TiE2000 with perfect focus system and XY-stage (Nikon, Amsterdam, The Netherlands). Quantification of the Hoechst and PI signal localization was performed using Nis Elements Analysis software. First, a max projection was created of all z-stacks. The overlapping areas between Hoechst and PI in the projection picture were assessed based on a manually curated intensity threshold. Finally, the fraction of spheroids positive for PI staining was determined.
(§2) All results are average of 2–3 independent experiments.

[1] = system: CII/CIII (succinate dehydrogenase / cytochrome bc1 complex); format: cell-based, human; settings: permeabilised HepG2; sequential substrates/inhibitors
Procedure: The test compound is injected and OCR is measured. […] OCR is measured for the second time. […] A third and final OCR measurement is conducted.
Compounds were injected sequentially and OCR was measured twice. […] ETC inhibition is determined in decreased OCR.
as §2

RPTEC/TERT1 cells = test: Resazurin reduction viability assay, RPTEC/TERT1; format: cell-based, human; settings: for Statistical significance, Viability Galactose settings Resazurin / Statistical significance, Viability Glucose settings Resazurin: RPTEC/TERT1
Procedure: These cells were obtained under licence from Evercyte GmBH, Vienna Austria. […] For experiments, cells were plated in a required format plate, allowed to become contact-inhibited and fed 24 h prior to treatment exposure. For experiments in galactose condition, cells were fed 24 h prior to experiment with culture medium (custom made DMEM/F12, PromoCell) in which 5 mM glucose was replaced with 5 mM galactose (Merck, G5388).
(§3) The conversion of resazurin to fluorescent resorufin was measured in a plate reader at excitation/emission 540/590 nm.
as §2

HepG2 cells = test: Resazurin reduction viability assay, 2D HepG2; format: cell-based, human; settings: for Effect on resazurin reduction / viability: up to 10 µM, 24 h exposure; for Effect on resazurin reduction / viability / Statistical significance, Viability Glucose settings Resazurin: glucose
Procedure: as §1, §3, §2

[2] = biological target: NADH dehydrogenase (Complex I, CI) (Homo sapiens, UniProt O75251+O75306+P03886)
Procedure: The mitochondrial complex assay uses real-time OCR measurement with sequential addition of specific complex substrates and/or inhibitors to identify the complex within the ETC that is inhibited. […] In the first step, cultured cells are permeabilised and provided with CI substrates. The test compound is injected and OCR is measured. […] OCR is measured for the second time. In the third step, Antimycin A together with ascorbate and tetramethyl phenylenediamine (TMPD) is added to simultaneously block CIII and supply CIV. A third and final OCR measurement is conducted.
The following day, cells were washed once in mitochondrial assay solution (MAS), containing 220 mM mannitol (Sigma, M9647), 70 mM sucrose (Sigma, S7903), 10 mM potassium phosphate (Sigma, P5655), 5 mM magnesium chloride (Sigma, M8266), 3 mM HEPES (Sigma, H0887) and 1 mM EGTA (Sigma, E4378) with 0.2% fatty acid-free BSA (Sigma, A8806). […] Each measurement consisted of a thirty second mix and two-minute read cycle. Compounds were injected sequentially and OCR was measured twice. […] Complex inhibition was determined using the second OCR measurement after compound/vehicle injection, normalised to the baseline OCR measurements prior to compound addition. ETC inhibition is determined in decreased OCR. CI inhibition is confirmed if the inhibited OCR by injection A can be rescued after injection B. CII inhibition is determined if there is no inhibition after A, but inhibition after B. CIII inhibition is determined if there is inhibition after A and B, with recovery after C. OCR inhibition after injection C indicates effects downstream of CIII.
All results are average of 2–3 independent experiments. Each independent experiment is referred to as biological replicate and includes at least two technical replicates. […] Variation in all performed assays was calculated and represented as standard deviation (SD). Curves were fit using the non-liner regression four-parameter Hill model.

[3] = read-out: EC50 cell death 3D HepG2, 1 × 24 h exposure
[4] = read-out: EC50 cell death 3D HepG2, 5 × 24 h exposure

Sequence of NADH dehydrogenase (Complex I, CI) (O75251 39-213): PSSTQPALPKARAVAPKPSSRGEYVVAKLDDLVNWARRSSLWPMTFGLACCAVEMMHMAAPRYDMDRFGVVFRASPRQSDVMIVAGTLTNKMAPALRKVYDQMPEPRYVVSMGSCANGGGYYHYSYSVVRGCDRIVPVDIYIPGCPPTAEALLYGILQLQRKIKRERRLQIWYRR
Sequence of NADH dehydrogenase (Complex I, CI) (P03886 whole entry): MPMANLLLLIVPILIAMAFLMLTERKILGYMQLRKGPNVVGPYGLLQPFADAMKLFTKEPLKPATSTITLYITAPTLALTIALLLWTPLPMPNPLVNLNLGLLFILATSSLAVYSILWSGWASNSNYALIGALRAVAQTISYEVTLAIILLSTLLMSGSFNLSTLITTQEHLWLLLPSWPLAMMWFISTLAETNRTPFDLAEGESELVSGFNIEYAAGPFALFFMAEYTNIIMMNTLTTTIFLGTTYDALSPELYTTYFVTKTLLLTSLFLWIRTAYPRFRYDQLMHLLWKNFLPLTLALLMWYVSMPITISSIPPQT
Sequence of NADH dehydrogenase (Complex I, CI) (O75306 34-463): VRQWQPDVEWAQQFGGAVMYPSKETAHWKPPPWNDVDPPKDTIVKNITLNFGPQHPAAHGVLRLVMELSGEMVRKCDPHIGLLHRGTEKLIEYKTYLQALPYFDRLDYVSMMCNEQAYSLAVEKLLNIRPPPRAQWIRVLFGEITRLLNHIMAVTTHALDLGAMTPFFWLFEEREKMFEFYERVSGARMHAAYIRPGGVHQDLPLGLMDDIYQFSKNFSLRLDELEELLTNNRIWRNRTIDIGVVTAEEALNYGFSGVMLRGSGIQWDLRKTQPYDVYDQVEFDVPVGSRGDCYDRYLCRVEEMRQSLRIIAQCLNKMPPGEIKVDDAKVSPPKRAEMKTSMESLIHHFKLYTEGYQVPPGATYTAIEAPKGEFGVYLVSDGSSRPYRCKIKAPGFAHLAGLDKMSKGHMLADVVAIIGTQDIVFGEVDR

| SMILES | ETC-complex specificity pattern (CII/CIII) [1] | Statistical significance, Viability Galactose settings Resazurin (RPTEC/TERT1 cells; g = 7 µM) | Statistical significance, Viability Galactose settings Resazurin (RPTEC/TERT1 cells; h = 10 µM) | Statistical significance, Viability Glucose settings Resazurin (RPTEC/TERT1 cells; glucose, g = 7 µM) | Statistical significance, Viability Glucose settings Resazurin (RPTEC/TERT1 cells; glucose, h = 10 µM) | Statistical significance, Viability Galactose settings Resazurin (HepG2 cells; HepG2, galactose, e = 0.08 µM) | Statistical significance, Viability Galactose settings Resazurin (HepG2 cells; HepG2, galactose, f = 0.4 µM) | Statistical significance, Viability Galactose settings Resazurin (HepG2 cells; HepG2, galactose, g = 7 µM) | Statistical significance, Viability Galactose settings Resazurin (HepG2 cells; HepG2, galactose, h = 10 µM) | other results |
| --- | --- | --- | --- | --- | --- | --- | --- | --- | --- | --- |
| CCCCCC[C@H]1C(=O)O[C@H](C)[C@H](NC(=O)c2cccc(NC=O)c2O)C(=O)O[C@@H](C)[C@@H]1OC(=O)CC(C)C [Antimycin A] | conformed to this pattern | * (*p < 0.05 (Tables 3, 4)) | * (*p < 0.05 (Tables 3, 4)) | * (*p < 0.05 (Tables 3, 4)) | * (*p < 0.05 (Tables 3, 4)) | * (*p < 0.05 (Tables 3, 4)) | * (*p < 0.05 (Tables 3, 4)) | * (*p < 0.05 (Tables 3, 4)) | * (*p < 0.05 (Tables 3, 4)) | Effect of repeated exposure (5 × 24 h vs 1 × 24 h) on toxic sensitivity (HepG2 3D spheroids): increased the toxic sensitivity; EC50 (HepG2 3D spheroids; [3]): > 10000 nM; EC50 (HepG2 3D spheroids; [4]): 74 nM; Statistical significance, Viability Galactose settings Resazurin (RPTEC/TERT1 cells; e = 0.08 µM): * (*p < 0.05 (Tables 3, 4)); Statistical significance, Viability Galactose settings Resazurin (RPTEC/TERT1 cells; f = 0.4 µM): * (*p < 0.05 (Tables 3, 4)); Statistical significance, Viability Galactose settings Resazurin (HepG2 cells; HepG2, galactose, d = 0.016 µM): * (*p < 0.05 (Tables 3, 4)) |
| CO/C=C(/C(=O)OC)c1ccccc1Oc1cc(Oc2ccccc2C#N)ncn1 [Azoxystrobin] | only partially rescued with ascorbate/TMPD | * (*p < 0.05 (Tables 3, 4)) | * (*p < 0.05 (Tables 3, 4)) | – | * (*p < 0.05 (Tables 3, 4)) | – | – | * (*p < 0.05 (Tables 3, 4)) | * (*p < 0.05 (Tables 3, 4)) | – |
| COc1cc(CNC(=O)CCCC/C=C/C(C)C)ccc1O [Capsaicin] | – | – | – | – | * (*p < 0.05 (Tables 3, 4)) | – | – | – | – | LOEL, CI inhibition in mitochondrial complex assay ([2]; permeabilised HepG2): 50 µM; ETC-complex specificity pattern (CI) ([2]; permeabilised HepG2, OCR inhibition after injection, recovery with succinate): expected CI-specificity pattern; Effect on resazurin reduction (RPTEC/TERT1 cells; up to 10 µM, 24 h exposure, glucose): did not affect resazurin reduction; Effect on resazurin reduction / viability (HepG2 cells): did not affect resazurin reduction |
| COc1cc2c(cc1OC)[C@@H]1C(=O)c3ccc4c(c3O[C@@H]1CO2)C=CC(C)(C)O4 [Deguelin] | – | * (*p < 0.05 (Tables 3, 4)) | * (*p < 0.05 (Tables 3, 4)) | * (*p < 0.05 (Tables 3, 4)) | * (*p < 0.05 (Tables 3, 4)) | – | * (*p < 0.05 (Tables 3, 4)) | * (*p < 0.05 (Tables 3, 4)) | * (*p < 0.05 (Tables 3, 4)) | OCR basal - Permeabilised cells Measurement 1 statistical significance [2]: * (*p < 0.05); Statistical significance, Viability Galactose settings Resazurin (RPTEC/TERT1 cells; f = 0.4 µM): * (*p < 0.05 (Tables 3, 4)) |
| CSC1=N[C@@](C)(c2ccccc2)C(=O)N1Nc1ccccc1 [Fenamidone] | only partially rescued with ascorbate/TMPD | – | – | – | – | – | – | – | * (*p < 0.05 (Tables 3, 4)) | – |
| CC(C)(C)c1ccc(CCOc2ncnc3ccccc23)cc1 [Fenazaquin] | – | – | – | * (*p < 0.05 (Tables 3, 4)) | * (*p < 0.05 (Tables 3, 4)) | * (*p < 0.05 (Tables 3, 4)) | * (*p < 0.05 (Tables 3, 4)) | * (*p < 0.05 (Tables 3, 4)) | * (*p < 0.05 (Tables 3, 4)) | – |
| CO/N=C(/C(=O)OC)c1ccccc1COc1ccccc1C [Kresoxim-methyl] | – | – | – | – | – | – | – | – | – | Statistical significance, Viability Galactose settings Resazurin (HepG2 cells): * (key: *p < 0.05 (Tables 3, 4)) |
| CO/C=C(/C(=O)OC)c1ccccc1COc1cccc(C(F)(F)F)n1 [Picoxystrobin] | conformed to this pattern | * (*p < 0.05 (Tables 3, 4)) | * (*p < 0.05 (Tables 3, 4)) | – | * (*p < 0.05 (Tables 3, 4)) | – | * (*p < 0.05 (Tables 3, 4)) | * (*p < 0.05 (Tables 3, 4)) | * (*p < 0.05 (Tables 3, 4)) | Effect of repeated exposure (5 × 24 h vs 1 × 24 h) on toxic sensitivity (HepG2 3D spheroids): increased the toxic sensitivity |
| COC(=O)N(OC)c1ccccc1COc1ccn(-c2ccc(Cl)cc2)n1 [Pyraclostrobin] | conformed to this pattern | * (*p < 0.05 (Tables 3, 4)) | * (*p < 0.05 (Tables 3, 4)) | * (*p < 0.05 (Tables 3, 4)) | * (*p < 0.05 (Tables 3, 4)) | – | * (*p < 0.05 (Tables 3, 4)) | * (*p < 0.05 (Tables 3, 4)) | * (*p < 0.05 (Tables 3, 4)) | Effect of repeated exposure (5 × 24 h vs 1 × 24 h) on toxic sensitivity (HepG2 3D spheroids): increased the toxic sensitivity; Statistical significance, Viability Galactose settings Resazurin (RPTEC/TERT1 cells; f = 0.4 µM): * (*p < 0.05 (Tables 3, 4)); Statistical significance, Viability Glucose settings Resazurin (HepG2 cells; HepG2, h = 10 µM): * (*p < 0.05 (Tables 3, 4)) |
| CC(C)(C)c1ccc(CSc2cnn(C(C)(C)C)c(=O)c2Cl)cc1 [Pyridaben] | – | – | – | * (*p < 0.05 (Tables 3, 4)) | * (*p < 0.05 (Tables 3, 4)) | * (*p < 0.05 (Tables 3, 4)) | * (*p < 0.05 (Tables 3, 4)) | * (*p < 0.05 (Tables 3, 4)) | * (*p < 0.05 (Tables 3, 4)) | Statistical significance, Viability Glucose settings Resazurin (RPTEC/TERT1 cells; glucose, f = 0.4 µM): * (*p < 0.05 (Tables 3, 4)); Statistical significance, Viability Galactose settings Resazurin (HepG2 cells; HepG2, galactose, d = 0.016 µM): * (*p < 0.05 (Tables 3, 4)) |
| CCOCCc1ccc(OCCN=c2[nH]cnc(CC)c2Cl)c(C)c1C [Pyrimidifen] | – | – | – | * (*p < 0.05 (Tables 3, 4)) | * (*p < 0.05 (Tables 3, 4)) | * (*p < 0.05 (Tables 3, 4)) | * (*p < 0.05 (Tables 3, 4)) | * (*p < 0.05 (Tables 3, 4)) | * (*p < 0.05 (Tables 3, 4)) | Statistical significance, Viability Galactose settings Resazurin (HepG2 cells; HepG2, galactose, d = 0.016 µM): * (*p < 0.05 (Tables 3, 4)) |
| C=C(C)[C@H]1Cc2c(ccc3c2O[C@@H]2COc4cc(OC)c(OC)cc4[C@@H]2C3=O)O1 [Rotenone] | – | – | – | – | – | – | – | – | – | EC50 (HepG2 3D spheroids; [3]): 127 nM; EC50 (HepG2 3D spheroids; [4]): 28 nM; Effect on resazurin reduction / viability (HepG2 cells): mildly affected the viability |
| CCc1nn(C)c(C(=O)NCc2ccc(C(C)(C)C)cc2)c1Cl [Tebufenpyrad] | – | – | – | * (*p < 0.05 (Tables 3, 4)) | * (*p < 0.05 (Tables 3, 4)) | * (*p < 0.05 (Tables 3, 4)) | * (*p < 0.05 (Tables 3, 4)) | * (*p < 0.05 (Tables 3, 4)) | * (*p < 0.05 (Tables 3, 4)) | Effect of repeated exposure (5 × 24 h vs 1 × 24 h) on toxic sensitivity (HepG2 3D spheroids): increased the toxic sensitivity; Statistical significance, Viability Glucose settings Resazurin (HepG2 cells; HepG2, h = 10 µM): * (*p < 0.05 (Tables 3, 4)) |
| CON=C(C(=O)OC)c1ccccc1CON=C(C)c1cccc(C(F)(F)F)c1 [Trifloxystrobin] | conformed to this pattern | – | – | – | * (*p < 0.05 (Tables 3, 4)) | – | * (*p < 0.05 (Tables 3, 4)) | * (*p < 0.05 (Tables 3, 4)) | * (*p < 0.05 (Tables 3, 4)) | – |
